The results in this text go back to PubChem BioAssay (NCI).

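Where inhibition never reached the appropriate level, the endpoint shown equals the highest concentration tested. Otherwise, values were interpolated linearly from a five-concentration, 48-hour dose response in 96-well plates. TGI: concentration producing complete growth inhibition.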

Test in all cases: DTP human tumour cell line panel, 48 h
In test [1] the test system is SN12C renal.
Test [2] concerns NCI-H522 lung.
Test [3] has as its system SW-620 colon.
In test [4] the test system is SR leukemia.
Test [5] concerns NCI/ADR-RES ovarian.
Test [6] deals with CAKI-1 renal.
Test [7] deals with SK-MEL-28 melanoma.
Test [8] concerns U251 CNS.
The test system of test [9] is 786-0 renal.
The test system of test [10] is SNB-19 CNS.
Test [11] has as its system OVCAR-4 ovarian.
For test [12], the system named is HCT-116 colon.
The subject of test [13] is UACC-257 melanoma.
For test [14], the system named is PC-3 prostate.
The test system of test [15] is OVCAR-3 ovarian.
Test [16] deals with HCT-15 colon.
Test [17] deals with NCI-H226 lung.
The subject of test [18] is RXF 393 renal.
Test [19] has as its system OVCAR-5 ovarian.
For test [20], the system named is M14 melanoma.

For `O=C(n1c(=O)n(-c2ccc(Cl)cc2)c(=O)n1C(=O)C(Cl)(Cl)Cl)C(Cl)(Cl)Cl`, the TGI in [1], in [2], in test [3], in [4], in test [5] and in test [6] was above 100 µM throughout. The TGI in test [7], in test [8], in test [9], in [10], in test [11] and in test [12] was above 100 µM throughout. Also, the TGI in [13], in test [14] and in test [15] was above 100 µM each time.

Take `COc1cc(C2(O)c3ccccc3C3=NCCN32)cc(OC)c1OC` (stereo unspecified): the TGI in test [1], in test [3], in test [4], in test [5], in test [6] and in test [7] was above 100 µM throughout. Besides, the TGI in test [8], in test [9], in [10], in test [11], in test [12] and in test [13] was above 100 µM each time. In addition, the TGI in [14], in test [16], in test [15] and in test [17] was above 100 µM each time.

`COC(=O)c1c(O)ccc2c1c1c(n2-c2ccc(OC)cc2)C(=O)c2ccccc2C1=O`: the concentration for total growth inhibition (TGI) in test [1] was above 100 µM; in [2] it was 56.3 µM; in test [3] it was above 100 µM; in [5] it was 48 µM; in test [18] it was 25.7 µM; in [6], 66 µM. Besides, the concentration for total growth inhibition (TGI) in test [7] is above 100 µM; in [19], 75.4 µM; in test [8], 28.4 µM; in test [9], 29.1 µM; in test [10], 44.7 µM; in test [11], 38.2 µM. The concentration for total growth inhibition (TGI) in [20] was above 100 µM; in test [12], 30.6 µM; in test [13], above 100 µM; in test [14], 74.1 µM; in test [16] it was above 100 µM; in test [15], 65.2 µM. The compound also returned a TGI in [17] of 73.3 µM.

`CO/N=C(/C(=O)OC)c1ccccc1COc1cccc(C(F)(F)F)c1`: the TGI in test [1] is above 100 µM; in [2], 70.2 µM; in test [3], above 100 µM; in test [5] it was above 100 µM; in test [18], 98 µM; in test [6], 56.1 µM. The TGI in [7], in test [19], in test [8], in test [9], in [10] and in test [11] was above 100 µM each time. Besides, the TGI in [20] is above 100 µM; in test [12], above 100 µM; in test [13], 52.6 µM; in test [14], above 100 µM; in test [16], above 100 µM; in test [15], 93.7 µM. The compound also came in with a TGI in [17] above 100 µM.

Consider `O=[N+]([O-])/C=C/COCc1cc2c(cc1Br)OCO2`, for which the TGI turned out to be 35.7 µM in [1]; 50.7 µM in [2]; 39.4 µM in test [3]; 54.1 µM in test [4]; 41.6 µM in [5]; 30.9 µM in [18]. Also, the TGI in test [6] worked out at 35.6 µM; in [7], 25.4 µM; in test [19], 34.3 µM; in [8], 30.7 µM; in [9], 30.6 µM; in test [11], 36.7 µM. The TGI in test [20] stood at 29.9 µM; in test [12], 34.1 µM; in test [13] it was 33.3 µM; in [14] it was 25.6 µM; in test [16] it was 34.3 µM; in test [15], 30.3 µM.

Take `N/C(COc1ccc(Cl)cc1)=N\NC(=O)c1ccncc1`: the TGI in test [1], in test [2], in [3], in test [5], in test [18] and in test [6] was above 100 µM in each case. The concentration for total growth inhibition (TGI) in test [7], in test [19], in [8], in [9], in test [10] and in test [11] was above 100 µM each time. Besides, the TGI in test [20], in test [12], in test [13], in test [14], in test [16] and in test [15] was above 100 µM in each case.

On to `COc1ccc2c(c1)N=C1CSC(c3c(Cl)cccc3[N+](=O)[O-])N1C2` (stereo unspecified), for which the concentration for total growth inhibition (TGI) in test [1], in test [2], in [3], in test [5], in test [18] and in test [6] was above 100 µM in each case. For the same compound, the concentration for total growth inhibition (TGI) in test [7], in test [19], in test [8], in test [9], in [10] and in test [11] was above 100 µM each time. For the same compound, the concentration for total growth inhibition (TGI) in [20] is above 100 µM; in test [12], above 100 µM; in test [13], above 100 µM; in test [14], above 100 µM; in test [16] it was above 100 µM; in test [17], 84.6 µM.

As to `COc1cccc(C[C@H]2COC(=O)[C@]2(O)Cc2cccc(OC)c2)c1`, the TGI in test [1], in [2], in test [3], in test [4], in test [5] and in test [6] was above 100 µM in each case. For the same compound, the TGI in [7], in test [19], in test [8], in [9], in [10] and in [11] was above 100 µM throughout. For the same compound, the TGI in test [20], in test [12], in test [13], in test [14], in test [16] and in [15] was above 100 µM in each case. The same compound came in with a TGI in test [17] above 100 µM.

In the case of `COc1ccc2c(c1)CCCN1Cc3ccccc3CC21` (stereo unspecified), the concentration for total growth inhibition (TGI) in [1], in test [2], in test [3], in test [5], in [18] and in test [6] was above 100 µM each time. Moreover, the TGI in [7], in [19], in test [8], in test [9], in test [10] and in [11] was above 100 µM in each case. In addition, the TGI in test [20], in test [12], in test [13], in [14], in [16] and in test [15] was above 100 µM throughout. In addition, the TGI in test [17] was above 100 µM.

Consider `CC[N+]1(C)CCC(O)(/C=C/c2ccc(Cl)cc2)C(C(=O)/C=C/c2ccc(Cl)cc2)C1` (stereo unspecified), for which the TGI in [1] is 27.1 µM; in test [5], 39.7 µM; in test [18], 25.4 µM; in [6] it was 3.71 µM; in test [7], 23.2 µM; in test [19], above 53.7 µM. Further, the TGI in test [8] is 20.8 µM; in [9] it was above 26.5 µM; in test [10], 17.4 µM; in [11], above 67.2 µM; in [20], above 38 µM; in test [12], 29.1 µM. The total growth inhibition concentration (TGI) was above 52 µM in test [13], 27.7 µM in test [14], above 51.6 µM in [16] and above 61 µM in [15].

For `CC(C)(C)N(Cc1ccoc1)C(=O)/C=C\S(=O)c1ccccc1` (stereo unspecified), the TGI in test [1] came to 58.5 µM; in test [2] it was 40.5 µM; in [3] it was 32 µM; in test [4] it was 77.8 µM; in test [5], 56.2 µM; in test [6], 27.6 µM. Besides, the TGI in test [7] was 44.4 µM; in [19] it was 59.2 µM; in test [8] it was 29.9 µM; in test [9], 67 µM; in test [10], 88.8 µM; in test [11], above 100 µM. Besides, the TGI in test [20] turned out to be 40 µM; in test [12], 34.1 µM; in test [13] it was 46.1 µM; in [14], 27.8 µM; in test [16], 51.4 µM; in test [15], 26.2 µM. In addition, the TGI in test [17] came to 48.6 µM.

`O=C(CN1CCOCC1)Nc1ccc2c(c1)C1Oc3ccccc3CC1CO2` (stereo unspecified): the TGI in test [1], in [2], in test [3], in test [4], in test [5] and in test [6] was above 100 µM throughout. Moreover, the TGI in test [19], in test [8], in test [9], in test [10], in [20] and in test [12] was above 100 µM in each case. Further, the TGI in [13], in test [14], in test [16], in test [15] and in test [17] was above 100 µM each time.

In the case of `O=S1c2ccccc2SCSc2ccccc21`, the TGI in test [1] was above 100 µM; in test [2], above 100 µM; in test [4] it was 91.1 µM; in test [5], above 100 µM; in [18], above 100 µM; in test [6], above 100 µM. Besides, the TGI in test [19], in [8], in [9], in [10], in [11] and in [20] was above 100 µM throughout. The TGI in test [12], in test [14], in [16] and in test [15] was above 100 µM in each case.

With `Fc1ccc(Nc2nnc(-c3ccccn3)s2)cc1`, the TGI in [1], in [2], in test [3], in test [5], in [18] and in test [6] was above 100 µM throughout. In addition, the TGI in [7], in test [19], in test [8], in test [9], in test [10] and in [11] was above 100 µM in each case. Also, the TGI in test [20], in test [12], in test [13], in test [14], in [16] and in test [15] was above 100 µM in each case.

With `O=C1c2ccccc2-c2c1c(-c1ccccc1)c1n2C2(C(=O)c3ccccc3C2=O)C2C(=O)N(c3ccccc3)C(=O)C12` (stereo unspecified), the TGI was 61.4 µM in test [1]; 33.6 µM in test [2]; above 100 µM in test [3]; above 100 µM in test [5]; 41.5 µM in [18]; above 100 µM in test [6]. Further, the TGI was above 100 µM in test [7]; above 100 µM in test [19]; above 100 µM in test [8]; 68.9 µM in [9]; above 100 µM in [10]; above 100 µM in test [11]. Further, the TGI in test [20] was above 100 µM; in [12] it was 37.8 µM; in [13], above 100 µM; in [14], 81.6 µM; in test [16] it was 42.8 µM; in test [15], 51.1 µM. In addition, in test [17], the TGI was 43.5 µM.

One may read the TGI as the concentration at which net growth stops.
